Experimental data as given in patent US9986740B2, “Methods of identifying insect-TRPA1 modulators” (BRANDEIS UNIVERSITY, priority 2010, dated 2018).
Positions count from the first letter of the chain named. Entries after “also recorded” stand apart in the source; their conditions may differ. Like-named read-outs stand apart in the source and are kept apart here. Each block holds one molecule with its values, some of them ahead of it.

Experiments:
mammalian TRPA1s = settings: conserved cysteine-independent; cited from earlier work
Drosophila flies = experiment: Proboscis extension response (PER) behavioral assay; type: in vivo, Drosophila melanogaster; settings: for Effect on PER in dTrpA1 loss-of-function mutants / Effect on PER in painless mutants / Effect on proboscis extension response (PER) / feeding: ingestion permitted; for Acceptance on first offering: first of five tastant offerings; for Effect on PER in painless mutants: painless mutant flies; for Effect on proboscis extension response (PER) / feeding: 350 mM sucrose with 2 mM AITC
uninjected oocytes = experiment: Two-electrode voltage clamping on uninjected oocytes; type: cell-based, Xenopus laevis; settings: 3 mM AITC, 1 mM CA, 0.1 mM NMM
dTRPA1-2C = biological target: T1, dTRPA1-2C (Drosophila melanogaster, UniProt Q7Z020, C650S/C670S); experiment: Two-electrode voltage clamping on oocytes expressing mutant dTRPA1-2C; type: cell-based; settings: cysteines 650 and 670 mutated to serines; 0.1, 0.5, 1.0 mM AITC
T1 construct: expressed in transfected cells; host or cells: Xenopus laevis oocytes
T1 sequence (Q7Z020 1-1197 C650S/C670S): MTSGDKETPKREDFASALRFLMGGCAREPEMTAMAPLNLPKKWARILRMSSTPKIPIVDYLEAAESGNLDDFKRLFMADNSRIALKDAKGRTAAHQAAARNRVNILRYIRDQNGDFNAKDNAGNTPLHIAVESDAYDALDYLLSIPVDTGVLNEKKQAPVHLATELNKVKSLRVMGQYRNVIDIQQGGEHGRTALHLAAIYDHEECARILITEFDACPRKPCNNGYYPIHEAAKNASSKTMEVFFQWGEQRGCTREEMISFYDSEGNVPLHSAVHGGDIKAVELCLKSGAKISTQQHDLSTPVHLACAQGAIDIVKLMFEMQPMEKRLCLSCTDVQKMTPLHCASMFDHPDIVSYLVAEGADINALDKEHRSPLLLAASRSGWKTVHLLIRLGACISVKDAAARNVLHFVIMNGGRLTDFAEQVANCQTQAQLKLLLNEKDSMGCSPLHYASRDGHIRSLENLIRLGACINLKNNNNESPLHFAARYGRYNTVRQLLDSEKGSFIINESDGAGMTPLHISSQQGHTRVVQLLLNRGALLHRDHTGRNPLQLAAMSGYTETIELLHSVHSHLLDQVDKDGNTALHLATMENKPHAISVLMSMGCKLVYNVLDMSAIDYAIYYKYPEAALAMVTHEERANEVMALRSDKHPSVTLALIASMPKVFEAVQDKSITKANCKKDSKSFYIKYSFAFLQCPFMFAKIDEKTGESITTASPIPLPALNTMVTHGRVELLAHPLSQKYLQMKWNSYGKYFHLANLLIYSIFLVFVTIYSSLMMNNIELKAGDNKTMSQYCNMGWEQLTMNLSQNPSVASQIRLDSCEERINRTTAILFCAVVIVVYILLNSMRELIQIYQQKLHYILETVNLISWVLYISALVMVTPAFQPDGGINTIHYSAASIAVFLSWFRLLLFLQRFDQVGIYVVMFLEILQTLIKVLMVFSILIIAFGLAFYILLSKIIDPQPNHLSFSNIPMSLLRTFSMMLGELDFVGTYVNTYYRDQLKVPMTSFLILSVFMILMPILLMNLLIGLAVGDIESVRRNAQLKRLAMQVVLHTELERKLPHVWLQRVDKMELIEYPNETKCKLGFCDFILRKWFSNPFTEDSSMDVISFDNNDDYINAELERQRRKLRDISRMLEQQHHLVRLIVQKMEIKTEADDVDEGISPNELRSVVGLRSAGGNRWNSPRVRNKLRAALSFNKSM
Protocol: Oocyte and larval physiology were performed largely as described in Hamada, et al., Nature 454, 217-220 (2008) and Pulver, et al., J Neurophysiol 101, 3075-3088 (2009), with additional details provided in below. Chemical sensitivities of wild type and mutant (dTRPA1-2C) channels were assessed by normalizing all currents to currents observed at 1 mM AITC.
Agonist-evoked dTRPA1 currents were recorded as previously described in (Hamada, et al., Nature 454, 217-220 (2008)), with the following modifications. Agonists of interest were added to the oocyte perfusion buffer (96 mM NaCl, 1 mM MgCl2, 4 mM KCl, and 5 mM HEPES, pH 7.6). Voltage was initially held at −60 mV, and a 300-ms voltage ramp (−60 mV to 60 mV) per sec was applied to dTRPA1- or AgTRPA1-expressing oocytes during perfusion of agonist-containing buffer. Typical oocyte resting membrane potentials were between −25 and −60 mV. […] EC50s for wild type dTRPA1 channels were obtained at −60 mV, with AITC provided for 60 sec with 30 sec intervals between increasing concentrations.
Substitutions of cysteine/lysine residues in dTrpA1 were made by swapping a region of wild type cDNA sequence including codons of cysteine or lysine with mutated cassettes. […]

dTRPA1 [1] = biological target: T2, dTRPA1 (Drosophila melanogaster, UniProt Q7Z020); experiment: Two-electrode voltage clamping on Xenopus laevis oocytes expressing dTRPA1; type: cell-based
T2 sequence (Q7Z020 1-1197): T1 sequence (Q7Z020 1-1197 C650S/C670S) with S650C, S670C

flies = settings: in vivo; cited from earlier work
nematodes = settings: in vivo; cited from earlier work
mammalian nociceptors = settings: cited from earlier work
dTRPA1 [2] = biological target: T2, dTRPA1; settings: cited from earlier work
agTRPA1 = settings: cited from earlier work
[3] = wild type flies, 10 mM NMM or 6 mM CA
[4] = wild-type dTRPA1 in Xenopus oocytes

Molecule: 2-aminoethoxydiphenyl borate [2-APB]
Activity on mammalian TRPA1s (mammalian TRPA1s): agonists

Molecule: C=CCN=C=S [AITC, allyl isothiocyanate]
Effect on PER in dTrpA1 loss-of-function mutants (Drosophila flies): no reduction
Acceptance on first offering (Drosophila flies): usually accepted
Effect on PER in painless mutants (Drosophila flies): significantly inhibited
Effect on proboscis extension response (PER) / feeding (Drosophila flies; [3]): dramatically inhibited
Response of uninjected oocytes (uninjected oocytes): did not respond
AITC sensitivity of dTRPA1-2C versus wild type (dTRPA1-2C): low sensitivity; also recorded: significantly decreased
Activation of dTRPA1 (dTRPA1 [1]): activated

Activation of dTRPA1 (dTRPA1 [1]; [4]): failed to activate
Molecule: CCN(CC)C(=O)c1cccc(C)c1 [DEET, N,N-diethyl-m-toluamide]

Activation of dTRPA1 (dTRPA1 [1]; [4]): failed to activate
Molecule: CCCCN(CCC(=O)OCC)C(C)=O [IR-3535]

Molecule: CN1C(=O)C=CC1=O [NMM, N-methyl-maleimide]
Effect on PER in dTrpA1 loss-of-function mutants (Drosophila flies): no reduction
Acceptance on first offering (Drosophila flies): usually accepted
Effect on ingestion in previously published ingestion-independent PER assay (Drosophila flies; ingestion-independent PER assay of Al-Anzi et al.): no effect
Effect on PER in painless mutants (Drosophila flies): significantly inhibited
Change of the compound's effect on PER upon dTRPA1 knockdown (Drosophila flies; tissue-specific dTRPA1 RNAi with Dll-Gal4, MJ94-Gal4 or Gr66a-Gal4, 10 mM NMM in 350 mM sucrose): robustly reduced
Effect on proboscis extension response (PER) / feeding (Drosophila flies; [3]): robustly inhibited
Response of uninjected oocytes (uninjected oocytes): did not respond

Molecule: Cn1c(=O)c2c(ncn2C)n(C)c1=O [caffeine]
Effect on PER in dTrpA1 loss-of-function mutants (Drosophila flies): inhibited
Effect on PER when only leg contact with food permitted (Drosophila flies; wild type flies, tastant contacts only legs, 350 mM sucrose with 100 mM caffeine, 2 mM AITC, 10 mM NMM or 6 mM CA): robustly inhibited

Molecule: COc1cc(CNC(=O)CCCC/C=C/C(C)C)ccc1O [capsaicin]
Acute response in flies (flies): no acute response
Acute response in nematodes (nematodes): no acute response
Effect on mammalian nociceptors (mammalian nociceptors): activates

Molecule: CC1(C)[C@H](C(=O)O[C@H](C#N)c2cccc(Oc3ccccc3)c2)[C@@H]1C=C(Br)Br [deltamethrin]
Activation of dTRPA1 (dTRPA1 [1]): failed to activate

Molecule: CN1CCCC1c1cccnc1 (centres unmarked) [nicotine]
Activity on mammalian TRPA1s (mammalian TRPA1s): agonists
Activation of dTRPA1 (dTRPA1 [1]): did not activate
Response of dTRPA1 expressing oocytes (dTRPA1 [1]): did not respond

Inhibition of agonist-elicited currents (dTRPA1 [1]; 100 μM ruthenium red applied): inhibited
Molecule: N.N.N.N.N.N.N.N.N.N.N.N.N.N.[Cl-].[Cl-].[Cl-].[Cl-].[Cl-].[Cl-].[O-2].[O-2].[Ru+3].[Ru+3].[Ru+4] [ruthenium red]
Inhibition of warmth-activated dTRPA1 currents (dTRPA1 [2]): partially inhibits
Inhibition of warmth-activated agTRPA1 currents (agTRPA1): partially inhibits
